Square brackets hold non-standard residues; d marks the D form. Peptide text beside a SMILES is read from it. * marks the point of attachment. X1 = CC(=O)N[C@@H]1[C@@H](O[C@@H]2O[C@H](CO)[C@H](O)[C@H](O)[C@H]2O)[C@@H](O)[C@@H](CO[C@@H]2O[C@H](CO)[C@@H](O[C@@H]3O[C@H](CO)[C@H](O)[C@H](O[C@]4(C(=O)O)C[C@H](O)[C@@H](NC(C)=O)[C@H]([C@H](O)[C@H](O)CO)O4)[C@H]3O)[C@H](O[C@@H]3O[C@@H](C)[C@@H](O)[C@@H](O)[C@@H]3O)[C@H]2NC(C)=O)O[C@@H]1*; Phe(4-CH2SO3H) = N[C@@H](Cc1ccc(CS(=O)(=O)O)cc1)C(=O)O
Molecular target: human P-selectin (Fc chimera) binding to PSGL-1 on U-937 monocytes (Homo sapiens, UniProt P16109)
Experiment: Flow cytometry: inhibition of P-selectin-Fc chimera binding to U-937 monocytes
Assay type: cell-based

## CC(=O)N[C@H]1[C@H](OC[C@H]2O[C@H](O[C@H](C)[C@H](NC(=O)[C@H](CCC(=O)O)NC(=O)[C@@H]3CCCN3C(=O)[C@H](CC(C)C)NC(=O)[C@H](Cc3ccccc3)NC(=O)[C@H](CC(=O)O)NC(=O)[C@H](Cc3ccc(CS(=O)(=O)O)cc3)NC(=O)[C@H](CC(=O)O)NC(=O)[C@H](CC(C)C)NC(=O)[C@H](Cc3ccc(CS(=O)(=O)O)cc3)NC(=O)[C@H](CCC(=O)O)NC(=O)[C@H](Cc3ccc(CS(=O)(=O)O)cc3)NC(=O)[C@H](CCC(=O)O)NC(=O)[C@H](CCCCN)NC(C)=O)C(=O)N[C@@H](CCC(=O)O)C(=O)N3CCC[C@H]3C(=O)N[C@@H](CC(C)C)C(=O)O)[C@H](NC(C)=O)[C@@H](O[C@@H]3O[C@H](CO)[C@H](O)[C@H](O)[C@H]3O)[C@H]2O)O[C@H](CO)[C@@H](O[C@@H]2O[C@H](CO)[C@H](O)[C@H](O[C@]3(C(=O)O)C[C@H](O)[C@@H](NC(C)=O)[C@H]([C@H](O)[C@H](O)CO)O3)[C@H]2O)[C@@H]1O[C@@H]1O[C@@H](C)[C@@H](O)[C@@H](O)[C@@H]1O [GSnP-6] (Ac-KE[Phe(4-CH2SO3H)]E[Phe(4-CH2SO3H)]LD[Phe(4-CH2SO3H)]DFLPET(X1)EPL-OH; C-terminus assumed)
  IC50: 11.1 µM
